Values quoted from earlier work, collected in patent publication US8865644B2, “Rapamycin formulation using recombinant high-density lipoprotein including apolipoprotein A-I and a mutant thereof” (Industry-Academic Cooperation Foundation, Yeungnam …, priority 2010, dated 2014).

solubility in water, aliphatic hydrocarbon and diethylether: hardly dissolved
SMILES: CO[C@H]1C[C@@H]2CC[C@@H](C)[C@@](O)(O2)C(=O)C(=O)N2CCCC[C@H]2C(=O)O[C@H]([C@H](C)C[C@@H]2CC[C@@H](O)[C@H](OC)C2)CC(=O)[C@H](C)/C=C(\C)[C@@H](O)[C@@H](OC)C(=O)[C@H](C)C[C@H](C)/C=C/C=C/C=C/1C [rapamycin]
